Data on three molecules can be found in paper PMC2966823 (Journal of the American Chemical Society, 2010).

One test has as its target FGFR1/FLT2 (Homo sapiens, UniProt P11362). The experiment in a line: split-luciferase three-hybrid displacement of Jun-staurosporine, […] inhibitor. It is filed as cell-based. Conditions: read-out: % inhibition at 10 μM.
For test [1], the target named is cAMP dependent protein kinase A, catalytic subunit α (PKA) (Homo sapiens, UniProt P17612). The test is described as above. It is filed as cell-based. Conditions: read-out: % inhibition at 10 μM.

Chain of FGFR1/FLT2 (P11362 478-767 limits assumed): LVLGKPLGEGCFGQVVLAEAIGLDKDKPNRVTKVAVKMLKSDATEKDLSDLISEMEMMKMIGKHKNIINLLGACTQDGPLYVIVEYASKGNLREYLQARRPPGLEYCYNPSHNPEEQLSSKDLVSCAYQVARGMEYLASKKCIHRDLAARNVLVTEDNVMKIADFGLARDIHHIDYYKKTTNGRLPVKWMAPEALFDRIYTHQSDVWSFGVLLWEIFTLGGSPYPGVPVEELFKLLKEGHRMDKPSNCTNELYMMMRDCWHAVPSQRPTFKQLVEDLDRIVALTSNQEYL

As a reminder, the inhibition is the drop in the measured response relative to a control, in per cent. For `CC(C)[C@H](CO)Nc1nc(Nc2ccc(C(=O)O)c(Cl)c2)c2ncn(C(C)C)c2n1` [compound 8, purvalanol B], the inhibition at 10 µM on FGFR1/FLT2 turned out to be 58%.

As for `O=S(=O)(NCCNC/C=C/c1ccc(Br)cc1)c1cccc2cnccc12` [compound 5, H89], the inhibition at 10 µM in test [1] stood at 67%.

As to `CC(C)[C@H](CO)Nc1nc(Nc2cc(N)cc(Cl)c2)c2ncn(C(C)C)c2n1` [compound 6, aminopurvalanol A], the inhibition at 10 µM on FGFR1/FLT2 turned out to be 68%.
